Values of other authors, collected in patent US7498130B2, “Method of reducing viral load” (Massachusetts General Hospital, priority 2003, dated 2009).

Experiments:
HIV = conditions: infected cells
[1] = in vivo

antithrombin III [ATIII]
lowering HIV viral loads (HIV): inactive
overall elimination half-life [1]: 18.6 h
